“And” between values parts separate entries of the source, which are not always exact repeats. Equal entries are not always repeated.
Legend:
[1] = Fluorescence of 2 μM acridine orange solution with NaCl, caffeine and/or dsDNA
Protocol: The addition of salt could possibly affect the Kassoc values of AO and the other reactants by modifying the charge on the reactants and/or decreasing the influence of water molecules. To minimize AO self-association, i.e. dimerization, a relatively low concentration of AO [2 μM] may be used. The interaction between reactants was analyzed by spectrofluorometric methods at λex 485 nm and monitored at λem 530 nm (green).
Solutions of 2 μM AO alone and in various combinations with 150 mM NaCl, 5 mM CAF, 2 mM DNA were studied. Table 3-2 summarizes the results and the statistical analysis for differences between means.
In Table 3-2, fluorescence (λex=485 nm and λem=530 nm) was measured for AO [2 μM] in the absence of, and in the presence of, NaCl [150 mM], caffeine [5 mM], and DNA [2 mM] alone or in combination. Significant differences were found by one-way ANOVA (p≦0.05). […] It is noted that n=3 unless denoted by an * which indicates n=4.
Spectrofluorometric analyses at λex 485 nm and λem 530 nm were performed on solutions of 2:M AO in combination with 5 mM CAF and 2 mM dsDNA, with and without 150 mM NaCl. […] Note that CAF had no significant effect on the fluorescence of the AO solution when in the presence of NaCl (SNK letter designation “B”).

[2] = Optical titration (absorbance) of acridine orange with xanthines/purines, Kassoc from delta absorbance; format: binding; settings: for K ± S.D.: AO-CAF, Absorbance, AO [10 μM], CAF [1-5000 μM], this study; for enhancement of the ability of theophylline to complex AO: Kassoc relative to theophylline; for Kassoc ± S.E.: binding affinity between acridine orange (10 μM) and compound, 5 mM HEPES pH 7.0, 25±1° C., 0 = no measurable association detected
Protocol: A red spectral shift in the optical adsorption maximum of AO upon the addition of a particular xanthine, indicates the possibility of a complex being formed between the two compounds. Spectral shifts can be measured by optical titrations.
Optical titrations (serial additions of various xanthines to a solution of AO) were performed on a Beckman DU-600 Scanning Spectrophotometer (Beckman Instrument Co., New York, N.Y.) using a 3 mL (1-cm light path) quartz cuvette containing 2.0 mL of a […]. The DU600 Spectrophotometer was blanked with 2 mL of a pH 7.0 buffered 5 mM HEPES solution over the full range of wavelengths to be scanned prior to sample analysis. This reduced the need to subtract the background absorbance from the HEPES buffer. Optical absorbance scans were performed over a wavelength range preferably from 400 nm to 550 nm. […] The 10 μM AO solution was scanned before the start of each titration series to quantitatively monitor any changes in the absorbance spectrum. Optical absorbance experiments were performed using aliquots varying in volume from 1:L to 20:L taken from prepared xanthine stock solutions (5 mM to 50 mM) and titrated into the cuvette containing 2.0 mL of the 10 μM AO solution. The solution in the cuvette was then thoroughly mixed by 10 seconds of shaking before scanning. All titrations were performed at room temperature (25±1° C.). The absorbance spectra were measured in 1 nm intervals and stored in digital form. Digitized scan data was converted to a Lotus Spreadsheet file (*.wk1) using a conversion program supplied by the manufacturer (Beckman Instruments Inc.) then imported into a Microsoft Excel 97™ Workbook file (*.xls) and saved in this format for further analysis. Spectral data for each titration was combined and expressed in graphic form (Excel™) (X-axis=wavelength in nm; Y-axis=optical absorbance) for each xanthine titrated with AO. […] Adjusted absorption values were plotted and compared to spectra from non-complexed AO. This allowed for the visualization of an expected spectral shift that occurs when AO forms a complex with a xanthine.
The association constant, Kassoc, may be used to analyze the binding ability of modified xanthines to DNA intercalators. The association constant may be calculated based upon a differential shift in the absorbance spectrum. When the presence of the xanthine caused a spectral shift, a difference absorbance plot or delta plot was obtained. Delta plots were constructed by subtracting the adjusted absorption spectrum of AO in the presence of the xanthine from the initial spectrum of AO alone at each wavelength and for each aliquot of the titration. This procedure allowed for the creation of difference absorption values or delta absorption values. Delta absorption values obtained in this manner (Y-axis=delta absorption) were plotted against wavelength in nm (X-axis). The appearance of a single isobestic point was indicative of only two species present in solution, AO, and an AO complex. Graphic representation allowed for the selection of a wavelength with the maximum sensitivity for determining the association constant. This wavelength was characterized by the greatest positive response in delta absorbance values observed upon addition of each aliquot of xanthine to the AO solution. The AO-xanthine association or binding constant was determined by the following equilibrium expression: I+X≡IX EQUATION 1: […]
Where I represents the intercalator (AO), X represents the interceptor molecule (xanthine), and IX represents the AO-xanthine complex, respectively.

[3] = tested on: chicken erythrocyte nuclear chromatin; assay: Removal of acridine orange from stained chicken erythrocyte nuclear chromatin by xanthine rinse, fluorescence microscopy; settings: for Nuclear color, Stain: before xanthine rinse; for Nuclear color, Re-stain: re-stained after xanthine rinse; for Nuclear color, After Rinse: xanthine rinse 50 mM, 1 hour, static
Protocol: Experiments were conducted to determine whether xanthines with known binding affinities to AO could compete with nuclear DNA for binding to AO and, therefore, be able to remove AO from its intercalation position within nuclear chromatin. Fluorescence microscopy was used to observe the fluorescent color produced by the AO-DNA complex following the staining of chicken erythrocyte nuclear chromatin with AO at both 5 μM and 5 mM.
Microscope slides smeared with chicken erythrocytes were stained with either 5 μM or 5 mM AO for a period of 30 minutes followed by three 10 second rinses in distilled water before drying at room temperature. Slides were then examined by fluorescence microscopy using a, Zeiss Model 63 Microscope with a xenon source fluorescent emitter. In some instances, a blocking filter was used to filter out fluorescence emission in the red and higher wavelengths. Photomicrographs were taken with Kodak Gold 35 mm ASA 1600 speed film, developed and color prints made. Comparative photomicrographs were taken at the same magnification and at the same exposure time. Selected photomicrographs were digitally scanned (Hewitt-Packard, Model 4L Scanner, Palo Alto, Calif.) and stored on 100 MB ZIP cartridges.
Slides were again examined by fluorescence microscopy and fluorescence color of the nuclei recorded. Slides were again stained with 5 mM AO then re-examined by fluorescence microscopy and fluorescence color of the nuclei recorded.
In the example shown in Table 4-3, the chicken erythrocytes were smeared and dried on a microscope slide prior to exposure to the AO solution for 30 minutes followed by water rinses to remove excess AO. Following drying, each slide was observed under fluorescence microscopy then placed in one of the xanthine solutions (50 ml volume) for 1 hour under static conditions, rinsed with water, then dried prior to being observed by fluorescence microscopy without a red blocking filter. Finally, each slide was restained following the initial staining procedures and again observed by fluorescence microscopy. Kassoc values are taken from Table 2-1 and are expressed in M^−1.

[4] = 2 μM AO, caffeine 5 mM, dsDNA 2 mM where present, λex 485 nm, λem 530 nm
[5] = Table 4-2, in parentheses under compound, taken from Table 2-1
[6] = Table 4-3, taken from Table 2-1

Compound | enhancement of the ability of theophylline to complex AO [2] [%] | Kassoc [2, 5] | Kassoc [2, 6] [M⁻¹] | Kassoc ± S.E. [2] | Nuclear color, Stain ([3]; AO [5 μM] 30 minutes) | Nuclear color, Re-stain ([3]; AO [5 μM]) | Nuclear color, After Rinse ([3]; AO [5 μM]) | Nuclear color, Stain ([3]; AO [5 mM] 30 minutes) | Nuclear color, Re-stain ([3]; AO [5 mM]) | Nuclear color, After Rinse ([3]; AO [5 mM]) | other results
CN(C)c1ccc2cc3ccc(N(C)C)cc3nc2c1.Cl [AO, 3,6-bis[dimethylamino]acridine hydrochloride] | – | – | – | – | – | – | – | – | – | – | Fluorescence With NaCl [150 mM] Mean ± S.E. [1, 4]: 635.5 ± 17.7 (B); Fluorescence Without NaCl Mean ± S.E. [1, 4]: 514.0 ± 6.5 (A) ^
Cn1c(=O)c2c(ncn2C)n(C)c1=O [1,3,7-trimethyl xanthine (caffeine), 1,3,7-trimethyl xanthine] | 63 | (256) M^−1 | 256 | 255.7 ± 4.8^c M^−1 | Green | Green | None | Red | Red | Red- | K ± S.D. [2]: 255 ± 5 M⁻¹ and 256 ± 5 M⁻¹; K ± S.D. ([2]; listed as CAF-AO): ~250 M⁻¹; Kassoc ([2]; Table 2-2, Kassoc value with acridine orange (this report)): 256 M⁻¹; Kassoc ± S.E. ([2]; listed as CAF): 256 M⁻¹; Kassoc ± S.E. ([2]; listed as CAF-AO): 256 M⁻¹; Kassoc ± S.E. ([2]; listed as CAP): ~256 M⁻¹; increase of fluorescence of 2 μM AO at 530 nm by addition ([1]; 2 mM DNA or 5 mM CAF, without NaCl): 29%; increase in fluorescence intensity of AO by addition ([1]; DNA or CAF in the presence of 150 mM NaCl): 36%
Cn1c(=O)c2[nH]cnc2n(C)c1=O.NCCN [1,3-dimethyl xanthine ethylenediamine] | 280 | (596) M^−1 | 596 | 596.2 ± 6.5 M⁻¹ | Green | Green | None | Red | Red | None | Kassoc ± S.E. ([2]; listed as AM): 596 M⁻¹; Kassoc ± S.E. ([2]; listed as aminophylline): 596.2 M⁻¹ and 596 M⁻¹; effect of xanthine rinse on fluorescence of AO stained nuclear chromatin ([3]; 50 mM xanthine rinse): removal of most, if not all, green and red color
